One test relates to LXR target genes. Briefly: Gene expression of LXR target genes in myotubes by Real-Time RT-PCR. The format is cell-based, human. To be noted: after 22-S-HC treatment; data not shown. In general terms: In qPCR the cycle at which signal appears reflects the starting amount.
In test [1] the test system is Myotubes from type II diabetic subjects. Briefly: T0901317 response in myotubes from type II diabetic vs healthy subjects. It counts as cell-based, human. To be noted: 1 μM; type II diabetic myotubes compared to myotubes from healthy donors. Here is the method:
FIG. 9. […] T0901317 (1 μM) response of (A) palmitate uptake, distribution into cellular lipids and oxidation and (B) glucose uptake (GT), oxidation (GOX) and glycogen synthesis (GS) in myotubes from healthy donors and donors with type 2 diabetes #p≦0.05 vs control myotubes.

The values that follow come from patent US20100137266A1, “TREATMENT OF INSULIN RESISTANCE AND DISORDERS ASSOCIATED THEREWITH” (UNIVERSITETET I OSLO, priority 2006, published 2010).

As to `CC(C)CC[C@H](O)[C@@H](C)[C@H]1CC[C@H]2[C@@H]3CC=C4C[C@@H](O)CC[C@]4(C)[C@H]3CC[C@]12C` [Example 22-S-HC, 22-S-hydroxycholesterol], the “FAS mRNA expression observed on a micro fluid card” value with LXR target genes is “significantly reduced”.

`O=S(=O)(c1ccccc1)N(CC(F)(F)F)c1ccc(C(O)(C(F)(F)F)C(F)(F)F)cc1` [Example T0901317]: in test [1], the “glucose uptake in response to T0901317” value was “reduced”; the “palmitate oxidation to CO2 in response to T0901317” value was “absence”; the “uptake and incorporation of palmitate into complex lipids in response to T0901317” value is on record as “elevated”.
